This note sets out measurements from US11192863B2, “Antiviral compounds and methods” (Biotron Limited, priority 2003, dated 2021).

In assay [1] the test system is MHV (strain MHV-A59). The following applies: L929 cells.
Assay [2] concerns the target Vpu protein (Human immunodeficiency virus type 1 group M subtype B, UniProt P05919). The following applies: halo of growth score between zero and six; XL1-blue E. coli with pPL-Vpu, no adenine, 37° C.
Assay [3] deals with human coronavirus OC43. Kind of assay: microbe, parasite or virus in culture. Format: cell-based. The following applies: Betacoronavirus 1, OC43, MRC5, 120 h, MRC-5 cells, 5 days post infection.
Assay [4] has as its target SARS-CoV E protein (Severe acute respiratory syndrome coronavirus, UniProt P59637). Format: cell-based.
The target in assay [5] is 229E-CoV E-protein (Human coronavirus 229E, UniProt P19741). As to the kind of experiment: Bacterial bio-assay for 229E-CoV E-protein. The following applies: halo of growth score; E. coli expressing E protein at 37° C.

SMILES strings stand for the structures. Read-outs that look alike come from different tables or passages of the source.

What is called inhibition is how much of the control response was suppressed. Lower therefore signals little suppression.

Regarding `N=C(N)NC(=O)/C=C/c1ccc(Cl)cc1Cl` [2,4-dichlorocinnamolyguanidine], the “Percent reduction in Plaque number/# experiments” value (“Percent reduction” for short) is given as 43/1% in assay [1] (1 uM), 73/1% in assay [1] (10 uM) and 76/1% in assay [1] (20 uM). Moreover, the “Vpu Inhibition (score/# of times tested)” value in assay [2] was 0.63/2 score. For the same compound, the inhibition at 2.5 µM in assay [3] was found to be 36%. Also, the “SARS E protein Inhibition (score/# of times tested)” value (“SARS E protein Inhibition” below) in assay [4] is reported as 0.63/2 score.

With `N=C(N)NC(=O)/C=C/c1c(Cl)cccc1Cl` [2,6-dichlorocinnamoylguanidine], the “Percent reduction” value was 40/1% in assay [1] (1 uM), 70/1% in assay [1] (10 uM) and 91/1% in assay [1] (20 uM). Moreover, in assay [2], the “Vpu Inhibition (score/# of times tested)” value is on record as 2.88/2 score. Further, in assay [5], the “229E E protein Inhibition (score)” value was determined as 1.0 score. In assay [3], this compound displayed an inhibition at 2.5 µM of 27%. The “SARS E protein Inhibition” value in assay [4] is 2.25/1 score.

As for `COc1ccc(Br)cc1/C=C/C(=O)NC(=N)N` [5-bromo-2-methoxycinnamoylguanidine], the “Percent reduction” value in assay [1] (1 uM) is given as 66/1%; in assay [1] (10 uM), 100/1%. Moreover, the “Vpu Inhibition (score/# of times tested)” value in assay [2] is reported as 1.9/2 score. Also, the “229E E protein Inhibition (score)” value in assay [5] was 3.6 score. The inhibition at 2.5 µM in assay [3] came to 24%.

For `N=C(N)NC(=O)/C=C/c1ccc(O)cc1` [(4-Hydroxycinnamoyl)guanidine], the “Percent reduction” value was 13/1% in assay [1] (1 uM), 15/1% in assay [1] (10 uM) and 19/1% in assay [1] (20 uM). For the same compound, the “Vpu Inhibition (score/# of times tested)” value in assay [2] is reported as 1.1/2 score. Also, the “229E E protein Inhibition (score)” value in assay [5] was determined as 0.6 score. Besides, the “SARS E protein Inhibition” value in assay [4] is given as 1.63/2 score.

As for `COc1ccc(/C=C/C(=O)NC(=N)N)cc1` [(4-Methoxycinnamoyl)guanidine], the “Percent reduction” value in assay [1] (1 uM) is on record as 51/3%; in assay [1] (10 uM), 96/4%; in assay [1] (20 uM), 98/4%. Further, the “Vpu Inhibition (score/# of times tested)” value in assay [2] is listed as 2.13/3 score. Moreover, the “229E E protein Inhibition (score)” value in assay [5] amounted to 0.1 score. The “SARS E protein Inhibition” value in assay [4] is reported as 0.88/2 score.

As for `NC(N)=NC(=O)c1ccc(Oc2ccccc2)cc1` [(4-Phenoxybenzoyl)guanidine], the “Percent reduction” value in assay [1] (1 uM) was 32/1%; in assay [1] (10 uM), 65/1%; in assay [1] (20 uM) it was 73/1%. The “Vpu Inhibition (score/# of times tested)” value in assay [2] is reported as 0.81/2 score. The “229E E protein Inhibition (score)” value in assay [5] stood at 2.3 score. In addition, the “SARS E protein Inhibition” value in assay [4] was 0.57/2 score.

Consider `C/C(=C\c1ccccc1)C(=O)NC(=N)N` [(a-Methylcinnamoyl)guanidine, (α-Methylcinnamoyl)guanidine], for which the “Percent reduction” value in assay [1] (1 uM) was 51/2%; in assay [1] (10 uM) it was 75/3%; in assay [1] (20 uM), 81/2%. For the same compound, in assay [2], the “Vpu Inhibition (score/# of times tested)” value was 0.6/2 score. Also, the “229E E protein Inhibition (score)” value in assay [5] was found to be 1.0 score. Moreover, in assay [4], the “SARS E protein Inhibition” value is 0.50/1 score.

Regarding `Cl.N=C(N)NC(=O)/C=C/c1ccccc1` [cinnamoylguanidine hydrochloride], the “Percent reduction” value in assay [1] (1 uM) was 56/1%; in assay [1] (10 uM), 72/2%; in assay [1] (20 uM), 85/1%. In addition, the “Vpu Inhibition (score/# of times tested)” value in assay [2] is on record as 0.6/2 score. Besides, in assay [5], the “229E E protein Inhibition (score)” value came out at 0.5 score. In addition, the “SARS E protein Inhibition” value in assay [4] is recorded as 2.50/1 score.
